This is an account of results in ChEMBL document CHEMBL1268925 (J Med Chem, 2010).

The target of the assay is T1, Dihydrofolate reductase (Bacillus anthracis, UniProt Q81R22).
T1 sequence (Q81R22 whole entry): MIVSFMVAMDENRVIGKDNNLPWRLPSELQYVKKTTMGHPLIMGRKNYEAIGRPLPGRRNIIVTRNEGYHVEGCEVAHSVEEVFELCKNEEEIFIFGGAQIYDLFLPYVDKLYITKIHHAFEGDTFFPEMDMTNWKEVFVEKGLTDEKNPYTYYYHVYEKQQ

What is called IC50 is the concentration that gives 50% inhibition. By Ki is commonly meant the equilibrium dissociation constant of an inhibitor or competing ligand from its target. Low readings indicate a stronger hold on the target, high ones a looser hold on the target. `CCc1nc(N)nc(N)c1C#CCc1cc(OC)ccc1-c1ccccc1` registered an IC50 of 7.7 µM and a Ki of 2.59 µM.

Molecule `COc1cc(C(C)(C)C#Cc2c(C)nc(N)nc2N)cc(OC)c1OC` registered an IC50 of 12.7 µM and a Ki of 4.28 µM.
